Source: patent US20230226040A1, “COMBINATION THERAPY COMPRISING AN FGFR INHIBITOR AND A KRAS INHIBITOR” (Incyte Corporation, priority 2021, published 2023)
“And” between values parts separate entries of the source, which are not always exact repeats. Identical values can stand only once.

Tests used:
H358 = test: 5-day Cell Titer Glo combination matrix, Bliss score; assay type: cell-based; conditions: H358 (Lung, Epithelial); KRAS inhibitor in combination with pemigatinib; 5 days
Method: (§2) Cells were seeded in RPMI medium with 10% HI FBS at a density of 500 cells/well in Greiner, white, clear bottom, 384-well tissue culture treated plates containing 10×10 combination matrices of compound. Plates were incubated at 37° C., 5% CO2 for 5 days. On day 5, Cell Titer Glo reagent was added to the plates and ATP luminescence was detected using a Pherastar FSX reader. The synergy score for the combination effect was calculated using a Bliss score model where the Bliss score=Yab-(Ya+Yb−(YaYb))×100, where Ya and Yb are the monotherapies. Bliss scores >20 are strongly synergistic and a higher Bliss scores indicates a higher level of synergism.
(§3) Cells were seeded in RPMI medium with 10% HI FBS at a density of 500 cells/well in Greiner, white, clear bottom, 384-well tissue culture treated plates containing 10×10 combination matrices of compound. Plates were incubated at 37° C., 5% CO2 for 5 days. On day 5, Cell Titer Glo reagent was added to the plates and ATP luminescence was detected using a Pherastar FSX reader. Synergy score for the combination effect is calculated using a Bliss score model where the Bliss score=Yab−(Ya+Yb−(YaYb))×100, where Ya and Yb are the monotherapies. Bliss scores >20 are strongly synergistic and a higher Bliss scores indicates a higher level of synergism.
(§4) Cells were seeded in RPMI medium with 10% HI FBS at a density of 500 cells/well in Greiner, white, clear bottom, 384-well tissue culture treated plates containing 10×10 combination matrices of compound. Plates were incubated at 37° C., 5% CO2 for 5 days. On day 5, Cell Titer Glo reagent was added to the plates and ATP luminescence was detected using a Pherastar FSX reader. The synergy score for the combination effect was calculated using a Bliss score model where the Bliss score=Yab−(Ya+Yb−(YaYb))×100, where Ya and Yb are the monotherapies. Bliss scores >20 are strongly synergistic and a higher Bliss scores indicates a higher level of synergism.

SW-837 = test: as above; assay type: cell-based; conditions: SW-837 (CRC, Epithelial); KRAS inhibitor in combination with pemigatinib; 5 days
Method: as §2, §4

pFRS2a [1] = test: Western blot of pFRS2a in LU99 cell lysate (90 hours treatment); assay type: cell-based; conditions: LU99 cells; 50 nM KRAS G12C inhibitor alone
Text: FGFR1 and downstream activation marker pFRS2a protein levels were examined in indicated cell lines, as well as markers for epithelial-like cells (E-cadherin) and mesenchymal-like cells (Vimentin).

HCC-44 = test: 5-day Cell Titer Glo combination matrix, Bliss score; assay type: cell-based; conditions: HCC-44 (Lung, Mesenchymal); KRAS inhibitor in combination with pemigatinib; 5 days
Method: as §2, §4

H1792 = test: as above; assay type: cell-based; conditions: H1792 (Lung, Mesenchymal); KRAS inhibitor in combination with pemigatinib; 5 days
Method: as §2, §3, §4

Calu-1 = test: as above; assay type: cell-based; conditions: Calu-1 (Lung, Mesenchymal); KRAS inhibitor in combination with pemigatinib; 5 days
Method: as §2

[2] = test system: MiaPaca2 KRAS G12C resistant clone 28; test: 5-day Cell Titer Glo viability and Bliss score; assay type: cell-based; conditions: 5-day CTG
Method: (§1) For G12C resistant clone generation, MiaPaca2 parent cells were cultured with increasing concentrations of AMG510 (up to 1μM) over time. The viable cells were re-fed fresh media containing AMG510 weekly. Once the AMG510 resistant cells were growing at normal rates in the presence of 1μM AMG510, they were cloned by limiting dilution. Eight clones were selected for continued passage and further experiments.

[3] = test system: MiaPaca2 KRAS G12C resistant clone 7; test: 5-day Cell Titer Glo viability and Bliss score; assay type: cell-based; conditions: 5-day CTG
Method: as §1

[4] = test system: MiaPaca2 KRAS G12C resistant clone 11; test: 5-day Cell Titer Glo viability and Bliss score; assay type: cell-based; conditions: CLONE 11, 5-day CTG
Method: as §1

[5] = test system: MiaPaca2 KRAS G12C resistant clone 23; test: 5-day Cell Titer Glo viability and Bliss score; assay type: cell-based; conditions: 5-day CTG
Method: as §1

SW-1573 = test: 5-day Cell Titer Glo combination matrix, Bliss score; assay type: cell-based; conditions: SW-1573 (Lung, Mesenchymal); KRAS inhibitor in combination with pemigatinib; 5 days
Method: as §2, §3, §4

LU99 cells = test: siRNA FGFR knockdown plus KRAS G12C inhibitor, Cell Titer Glo proliferation; assay type: cell-based; conditions: 120 h
Method: Knockdown efficiency was assessed by Western blot and its effect was measured by cell proliferation inhibition.
The lyophilized siRNA pools or individuals (Dharmacon ON-TARGET plus siRNA from Horizon Discovery) were reconstituted by combining 1× siRNA buffer (200 μL) with lyophilized siRNA (20 nmol); or combining 1× siRNA buffer (100 μL) with lyophilized siRNA (10 nmol). Dharmafect Reagent 1 was prepared at a 1:200 dilution in 1X siRNA buffer. One tube of diluted reagent was prepared for each siRNA dilution. To each tube, the appropriate siRNA was added to Dharmafect Reagent 1 at a 1:400 dilution. The prepared siRNA reagent ([…]) was added to the appropriate number of wells on a 96-well clear bottom Greiner plate and incubated at room temperature for 30 min.
For plating in 96-well pates, 2000 LU99 cells per well in 100 μL of medium were prepared. The prepared cells (100 μL per well) were added to each well of the 96-well plate and incubated at 48 h.
Compound plates were prepared with a compound starting concentration of 5 mM in a 3-fold dilution. Following 48 h transfection incubation, the appropriate compounds were added to the 96-well plate at a final starting concentration of 5 μM in 3-fold dilution (11 point dose response curve). After addition of the compounds, the 96-well plates were incubated at 37° C. for 120 h. After this time, Cell Titer Glo reagent is reconstituted and 100 μL of reagent was added per well. The plates were tapped gently and luminescence was read on a Pherastar microplate reader.

[6] = test system: LU99 lung cancer xenograft; test: LU99 xenograft model, tumor growth inhibition; assay type: in vivo; conditions: NCr nude mice; AMG510 20 mg/kg, pemigatinib 0.3 mg/kg, alone or combined; oral QD, 30 days; last day of treatment
Method: The in vivo effect of combining the FGFR1 inhibitor pemigatinib plus the KRAS G12C inhibitor AMG510 was assessed in the LU99 lung cancer model (JCRB0080, JCRB) xenograft model (FIG. 3) in 6 to 8 week old female NCr nude mice (Taconic). Pemigatinib and AMG510 were suspended in 5% N,N-dimethyl acetamide (DMAC)+50 mM Citrate buffer (pH 3.0) in 0.5% methyl cellulose for oral administration. Briefly, mice were inoculated in the left flank with 1×10^7 LU99 cells re-suspended in a PBS and matrigel (Corning Life Sciences, Tewksbury, Mass) solution at 1:1. On Day 7, mice were randomized into 4 groups of 10 mice at approximate mean volume (˜212 mm^3). […] Tumor growth inhibition was calculated using the formula (1−(VT/VC))×100, where VT is the tumor volume of the treatment group on the last day of treatment, and Vc is the tumor volume of the control group on the last day of treatment. […] Statistics were determined using One-Way ANOVA.
Briefly, mice were inoculated in the left flank with 1×10^7LU99 cells re-suspended in a PBS and matrigel (Corning Life Sciences, Tewksbury, Mass) solution at 1:1. […] TGI was calculated using the formula (1−(VT/VC))×100, where VT is the tumor volume of the treatment group on the last day of treatment, and VC is the tumor volume of the control group on the last day of treatment. […]

pFRS2a [7] = test: Western blot of pFRS2a in LU99 cells (24 hours treatment, with or without rhFGF); assay type: cell-based; conditions: 100 nM KRAS G12C inhibitor, with or without rhFGF stimulation
Method: LU99 cells were treated with 100 nM of Compound 2, pemigatinib, Compound 1, or indication combination for 24 hours, and with or without lng/ml recombinant human FGF (rhFGF) before harvesting the lysate.
Cells were seeded in Corning 6-well tissue culture treated plates in RPMI medium with 10% FBS at 6×10^5 cells/well. After 48 hours, cells were or treated with indicated compounds for 24 hours at 37° C., 5% CO2. rhFGF—basic (R&D systems 233-FB) was added at 1 nG/ml for 15 minutes at the end of the experiment as indicated. The cells were washed with PBS and lysed with 1x lysis buffer (Cell Signaling #9803) with protease and phosphatase inhibitors. Twenty-five μg of total protein lysates was subjected to SDS-PAGE and immunoblot analysis using the following Cell Signaling antibodies: pERK (#4370) phospho-FRS2a (#3861) and beta-Actin (#12620).
Cells were seeded in Corning 6-well tissue culture treated plates in RPMI medium with 10% FBS at 6x10^5 cells/well. After 48 hours, cells were or treated with indicated compounds for 24 hours at 37° C., 5% CO2. rhFGF—basic (R&D systems 233-FB) was added at 1 nG/ml for 15 minutes at the end of the experiment as indicated. The cells were washed with PBS and lysed with 1× lysis buffer (Cell Signaling #9803) with protease and phosphatase inhibitors. […]

[8] = in the absence of FGFR1, FGFR2 or FGFR3

## C=CC(=O)N1CCN(c2nc(=O)n(-c3c(C)ccnc3C(C)C)c3nc(-c4c(O)cccc4F)c(F)cc23)[C@@H](C)C1 [AMG-510]
H358
  Avg. Bliss Score: 3.7
SW-837
  Avg. Bliss Score: −7.7
pFRS2a [1]
  protein level of pFRS2a: elevated the protein level of pFRS2a
HCC-44
  Avg. Bliss Score: 4.4
H1792
  Avg. Bliss Score: 26.7
Calu-1
  Avg. Bliss Score: 11.2
[2]; G12C i alone (Compound 1 arm)
  % viability, G12C i 111 nM: 77.5%
[2]; G12C i alone (Pemi arm)
  % viability, G12C i 111 nM: 69.6%
[3]; Average, G12C i alone (Compound 1 arm)
  % viability, G12C i 111 nM: 77.6%
[3]; Average, G12C i alone (Pemi arm)
  % viability, G12C i 111 nM: 77.8%
[3]; G12C i alone (Compound 1 arm), single experiments
  % viability, G12C i 111 nM: 67.1% and 88%
[3]; G12C i alone (Pemi arm), single experiments
  % viability, G12C i 111 nM: 69.6% and 90% and 73.7%
[4]; G12C i alone (Compound 1 arm)
  % viability, G12C i 111 nM: 63%
[4]; G12C i alone (Pemi arm)
  % viability, G12C i 111 nM: 67%
[5]; G12C i alone (Compound 1 arm)
  % viability, G12C i 111 nM: 83.9%
[5]; G12C i alone (Pemi arm)
  % viability, G12C i 111 nM: 90.9%
SW-1573
  Avg. Bliss Score: 25.9
LU99 cells; [8]
  inhibition of LU99 cell proliferation after siRNA knockdown: higher inhibition in proliferation
LU99 cells; in the absence of FGFR1 or FGFR4
  inhibition of LU99 cell proliferation after siRNA knockdown: higher inhibition in proliferation
[6]
  TGI (tumor growth inhibition): 66%

## COC/C=C/C(=O)N1CC[C@H](n2nnc3c(N4CC(C)(N(C)C)C4)nc4c(F)c(-c5ccc(F)c6cccnc56)c(C(F)(F)F)cc4c32)C[C@H]1CC#N [Compound 2, 2-((2S,4S)-4-(4-(3-(dimethylamino)-3-methylazetidin-1-yl)-6-fluoro-7-(5-fluoroquinolin-8-yl)-8-(trifluoromethyl)-1H-[1,2,3]triazolo[4,5-c]quinolin-1-yl)-1-((E)-4-methoxybut-2-enoyl)piperidin-2-yl)acetonitrile]
pFRS2a [1]
  protein level of pFRS2a: elevated the protein level of pFRS2a
pFRS2a [7]
  pFRS2a signaling: elevated
LU99 cells; all FGFR isoforms knocked down, in particular in the absence of FGFR1 and FGFR2
  inhibition of LU99 cell proliferation after siRNA knockdown: higher inhibition in proliferation
LU99 cells; [8]
  inhibition of LU99 cell proliferation after siRNA knockdown: higher inhibition in proliferation
